US11938129B2, “Methods and compositions for the treatment of vascular disease” (THE GENERAL HOSPITAL CORPORATION, priority 2018, dated 2024)
Entries after “also recorded” stand apart in the source; their conditions may differ.

Experiments:
EZH1 = EZH1 (Homo sapiens, UniProt Q92800); settings: cited from earlier work
[1] = tested on: SM22a expression in TAA VSMCs; test: in vitro GSK343 treatment of isolated TAA VSMCs, SM22a immunoblotting after TGF-β1; format: cell-based, human; settings: GSK343, TGF-β1 10 ng/mL
Method: Primary human aortic smooth muscle cells (HAoSMC) from healthy donors were purchased from Cell Applications Inc., California, USA (Cat. #354K-05a). Primary aneurysm aortic SMCs were isolated from fresh TAA tissue at the moment of surgery by standard explant of the aortic media. Mouse aortic SMCs were isolated by standard explant of the ascending section of the aortas from wild-type or Fbn1ci°39G1+ mice. Smooth muscle cell identity was assessed by immunofluorescence staining of contractile markers including SM22a, Calponin, Smoothelin and Vinculin. In order to preserve cell identity all experiments were carried out at passages 1-5 (Timraz et al., 2016). Human and murine SMCs were grown with smooth muscle cell growth medium from Cell Applications Inc. (Cat. #311-500). VSMCs at 60-70% confluence were supplemented with opti-MEM 24 hrs before treatment with complete growing media containing GSK343 at a concentration of […] for 4 days. Fresh media containing GSK343 was supplied daily. For GSK343/TGF81 (10 ng/mL) combo treatment, cells were first treated with complete media containing GSK343 at concentration of 10 nM during the 2 first days followed by GSK343/TGFβ combination treatment the next 2 days. Prior to cellular collection cells were washed with sterile PBS and RNA or protein extraction were performed as described above.

Hdac9 = test: immunofluorescence of Hdac9 in ligated carotid; format: in vivo, mouse; settings: arterial media and intima of carotid arteries
Method: All mice used in this study were cared for under strict compliance with the Partners Institutional Animal Care and Use Committee (IACUC), regulated by the United States Public Health Service (USPHS). Carotid ligations were performed in 10 week old mice. Briefly, animals were anesthetized using intraperitoneal ketamine/xylazine (80 and 12 mg/kg, respectively) followed by a small incision in the neck to expose the carotid artery. Then the left carotid was ligated at the carotid bifurcation level using a 8-0 silk suture. At 21 days mice were sacrificed and carotids were collected for histological analysis. Approximately 98% of wild type mice developed stenotic lesions. Mice that developed thrombosis of the ligated carotid were excluded from the study (−1¬2%). Malatl knockout mice were kindly provided by Dr. David Spector (Cold Spring Harbor, N.Y.). Hdac9 flox/flox/Talgn-cre mice were generated as previously reported (10). […]
Left and right carotids were cryosectioned using OCT standard protocol and sectioning. […] Slides 1, 5, 10, and 15 were H&E stained for quantification of neointima. For quantification of the neointima, internal and external elastic lamina perimeters and medial thickness from 4 quadrants were measured and averaged using Image J software from the National Institutes of Health (NIH). […]

TGF-β signaling = test: TGF-β activity by phosphorylation of Smad2 or Erk1 in aortas of treated mice; format: in vivo, mouse; settings: aortic tissue of treated Fbn1C1039G/+ mice
Method: Latex was injected into the left ventricular apex under low pressure until it was visible in the femoral artery. Animals were then fixed in Formalin (10%) for 24 hours before transfer to 70% ethanol for dissection and storage. Aortas were then removed from the animals or dissected in situ for photography prior to paraffinization and sectioning (10 pM). Slides were produced for tissue staining or stained with standard stains including H&E staining, collagen deposition (Trichrome Stain (Masson) Kit, Sigma, USA), elastin (Verhoeff-Van Gieson, Thermo Scientific, MI, USA) or F-actin (ActinGreen™ 488 ReadyProbes, ThermoFisher Scientific, USA) for quantitative analysis. Elastin integrity score was rated by blinded observers and graded on an arbitrary scale of 5 (indicating high quality elastic fiber) to 1 (indicating severe elastin fragmentation). For nuclear staining aortas from human and mice were cryosectioned using OCT standard protocol as described previously (Fischer et al., 2008). Cohorts of 8-week-old wild-type or Fbn1cw3gGi+ mice were treated with oral administration in drinking water of either Losartan or GSK343 for 20 weeks (FIG. 5). […] Then 200 mL of drinking water was supplemented with 250 pL of GSK343 stock solution. […] Aortic dimensions were monitored monthly by echocardiograms as mentioned above.

MMP2 and MMP9 activity = test: in vivo MMP activity (MMPSense 750 FAST) after carotid ligation; design: species or system mouse; settings: 24 h post injection, ligated mice
Method: Mice were tail vein injected with 600 uL of MMPSense 750 FAST, a near-infrared fluorescence sensor for MMP2 and MMP9 activity, (PerkinElmer, USA). Mice were sacrificed 24 h post injection and aortas were dissected and analyzed using a Kodak image station 4000MM Pro for macroscopic fluorescence reflectance molecular imaging.
Cohorts of 10-week-old wild-type mice were treated with oral administration in drinking water of GSK343 24 hrs before left carotid ligation and following treatment for 3 weeks. GSK343 inhibitor (25 mg) was dissolved in 1 mL of DMSO to obtain a stock solution of 46 mM. Then, 250 ml of drinking water was supplemented with 250 pl of GSK343 stock solution. Control group for was given with equal volumes of sterile water. Bottles containing GSK343 were replaced with fresh water supplied with drug every 3 days. For Malatl antisense LNA treatments, cohorts of 10-week-old wild-type mice were injected with 15 nmol in saline solution 24 hrs before left carotid ligation following by a second injection 7 days post-ligation.

EZH1, sequence (Q92800 whole entry, species assumed): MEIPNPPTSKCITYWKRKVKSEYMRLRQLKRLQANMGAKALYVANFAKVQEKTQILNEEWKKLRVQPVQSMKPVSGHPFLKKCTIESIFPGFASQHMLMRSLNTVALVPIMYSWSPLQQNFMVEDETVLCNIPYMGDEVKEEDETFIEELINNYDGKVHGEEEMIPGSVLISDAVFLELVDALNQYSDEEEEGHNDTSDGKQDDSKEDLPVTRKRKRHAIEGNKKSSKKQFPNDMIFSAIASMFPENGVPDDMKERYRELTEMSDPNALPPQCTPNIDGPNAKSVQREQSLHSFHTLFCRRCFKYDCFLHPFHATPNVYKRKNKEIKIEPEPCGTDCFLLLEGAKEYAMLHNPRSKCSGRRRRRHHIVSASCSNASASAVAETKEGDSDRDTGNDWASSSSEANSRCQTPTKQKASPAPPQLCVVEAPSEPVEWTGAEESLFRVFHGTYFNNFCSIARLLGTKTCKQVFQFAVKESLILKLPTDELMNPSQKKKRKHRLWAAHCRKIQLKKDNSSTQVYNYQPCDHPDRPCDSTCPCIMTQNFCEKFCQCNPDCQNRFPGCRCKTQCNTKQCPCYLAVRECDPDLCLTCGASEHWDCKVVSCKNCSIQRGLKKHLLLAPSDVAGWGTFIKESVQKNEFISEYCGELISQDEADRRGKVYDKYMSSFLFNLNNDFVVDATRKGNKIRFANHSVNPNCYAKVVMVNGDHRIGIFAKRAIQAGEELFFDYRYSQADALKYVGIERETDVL
EZH1, sequence (O75530 whole entry partner, species assumed): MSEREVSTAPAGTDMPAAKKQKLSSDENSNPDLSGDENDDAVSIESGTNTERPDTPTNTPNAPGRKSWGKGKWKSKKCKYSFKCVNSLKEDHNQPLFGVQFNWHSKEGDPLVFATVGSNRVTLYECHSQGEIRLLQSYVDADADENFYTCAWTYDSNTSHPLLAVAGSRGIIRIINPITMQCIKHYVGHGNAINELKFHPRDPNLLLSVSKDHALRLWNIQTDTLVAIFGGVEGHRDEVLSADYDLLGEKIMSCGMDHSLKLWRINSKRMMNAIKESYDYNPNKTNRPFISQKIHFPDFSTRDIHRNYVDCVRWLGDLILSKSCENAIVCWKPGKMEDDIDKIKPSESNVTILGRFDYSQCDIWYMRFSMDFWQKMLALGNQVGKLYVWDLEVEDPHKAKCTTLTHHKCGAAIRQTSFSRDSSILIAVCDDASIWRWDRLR
EZH1, sequence (Q15022 whole entry partner, species assumed): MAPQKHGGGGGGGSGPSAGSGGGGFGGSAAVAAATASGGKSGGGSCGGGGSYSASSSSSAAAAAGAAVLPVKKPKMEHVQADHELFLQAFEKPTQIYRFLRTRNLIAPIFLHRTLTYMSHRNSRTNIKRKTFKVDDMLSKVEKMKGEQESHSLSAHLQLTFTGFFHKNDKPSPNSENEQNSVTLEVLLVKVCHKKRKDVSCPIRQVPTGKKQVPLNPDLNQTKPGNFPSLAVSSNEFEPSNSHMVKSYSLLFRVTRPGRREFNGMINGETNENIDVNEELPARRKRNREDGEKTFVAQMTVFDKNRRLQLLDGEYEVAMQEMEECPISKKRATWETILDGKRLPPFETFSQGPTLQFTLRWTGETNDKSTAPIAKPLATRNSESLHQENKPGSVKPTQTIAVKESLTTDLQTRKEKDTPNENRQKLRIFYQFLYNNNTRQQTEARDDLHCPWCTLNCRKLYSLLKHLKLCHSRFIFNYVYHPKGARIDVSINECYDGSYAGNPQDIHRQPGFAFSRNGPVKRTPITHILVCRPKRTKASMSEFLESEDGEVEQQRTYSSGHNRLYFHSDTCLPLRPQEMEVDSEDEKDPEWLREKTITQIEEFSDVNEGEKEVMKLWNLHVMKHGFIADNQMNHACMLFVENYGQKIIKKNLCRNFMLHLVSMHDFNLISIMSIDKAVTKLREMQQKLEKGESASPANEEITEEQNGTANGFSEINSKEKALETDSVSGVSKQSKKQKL
EZH1, sequence (Q09028 whole entry partner, species assumed): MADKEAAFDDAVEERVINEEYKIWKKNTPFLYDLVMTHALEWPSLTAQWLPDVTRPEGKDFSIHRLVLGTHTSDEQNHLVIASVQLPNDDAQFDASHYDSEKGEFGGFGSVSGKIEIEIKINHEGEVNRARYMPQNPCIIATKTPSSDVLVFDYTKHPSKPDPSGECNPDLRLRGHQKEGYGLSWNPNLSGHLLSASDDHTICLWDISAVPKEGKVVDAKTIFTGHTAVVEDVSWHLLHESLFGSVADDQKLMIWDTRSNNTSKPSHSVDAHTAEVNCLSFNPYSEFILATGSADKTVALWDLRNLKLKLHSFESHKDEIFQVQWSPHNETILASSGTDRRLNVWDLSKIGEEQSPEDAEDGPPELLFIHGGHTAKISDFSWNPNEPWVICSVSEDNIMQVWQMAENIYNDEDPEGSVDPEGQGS
EZH1, sequence (Q6ZN18 whole entry partner, species assumed): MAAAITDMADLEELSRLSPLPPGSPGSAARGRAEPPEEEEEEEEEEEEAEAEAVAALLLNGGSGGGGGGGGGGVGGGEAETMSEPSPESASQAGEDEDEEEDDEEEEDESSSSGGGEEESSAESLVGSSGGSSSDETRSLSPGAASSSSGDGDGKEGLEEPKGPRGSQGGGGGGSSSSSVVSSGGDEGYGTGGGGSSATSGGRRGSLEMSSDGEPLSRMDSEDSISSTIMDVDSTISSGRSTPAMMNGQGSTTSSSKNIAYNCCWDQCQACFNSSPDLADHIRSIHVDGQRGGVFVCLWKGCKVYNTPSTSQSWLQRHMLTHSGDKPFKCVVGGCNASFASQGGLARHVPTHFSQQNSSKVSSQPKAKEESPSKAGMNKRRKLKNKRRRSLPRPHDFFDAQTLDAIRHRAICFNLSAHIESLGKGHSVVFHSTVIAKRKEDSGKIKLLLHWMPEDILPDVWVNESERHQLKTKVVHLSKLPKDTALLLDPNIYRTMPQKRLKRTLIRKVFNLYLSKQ

SMILES: CCCc1cc(C)[nH]c(=O)c1CNC(=O)c1cc(-c2ccnc(N3CCN(C)CC3)c2)cc2c1cnn2C(C)C [GSK343]
- selectivity for EZH2 vs. EZH1 (EZH1): 60 fold
- SM22a expression after stimulation with recombinant TGF-β1 [1]: recovered the ability to induce SM22a expression
- accumulation of Hdac9 (Hdac9): decreased accumulation
- TGF-β activity as assessed by phosphorylation of Smad2 or Erk1 protein (TGF-β signaling): did not suppress and not
- activity of MMPs (MMP2 and MMP9 activity): Inhibition of Mmp activity; also recorded: inhibited the activity of MMPs
